We go through 7 compounds from patent US20230111910A1, “PD-1/PD-L1 INHIBITOR, PREPARATION METHOD THEREFOR, AND USE THEREOF” (SHANGHAI SYNERGY PHARMACEUTICAL SCIENCES CO., LTD., priority 2020, published 2023).

Where a name gives a salt, the structure may show the parent alone. Read-outs that look alike come from different tables or passages of the source.

The subject of data set [1] is mouse colon cancer MC38-hPD-L1. Nature of the data set: In vivo efficacy in mice, MC38-hPD-L1 subcutaneous tumor model. The note with it: 50 mg/kg i.g., twice a day, MC38-hPD-L1 in C57BL/6 mice. The source says: Under sterile conditions, mouse colon cancer MC38-hPD-L1 in logarithmic growth phase was digested into single cells and then transplanted into the right back of C57BL/6 mice subcutaneously. Each mouse was inoculated with 1×10^6 cells in a volume of […] (μL). After inoculation, when the tumor grows to 100 cubic millimeters (mm^3), the mice were randomly divided into 9 groups, with 8 mice in each group, for drug efficacy experiments. The positive control was human programmed death receptor ligand (PD-L1) antibody. The negative control group was given the same amount of vehicle.
C57BL/6 mice, SPF grade, 6-8 weeks old, female, purchased from Beijing Vital River Laboratory Animal Technology Co., Ltd., license number SCXK […] 2017-0011, animal certificate number: 20170011003865.
An appropriate amount of compound was weighted, dissolved in 5% dimethyl sulfoxide (DMSO), subjected to vortex and sonication, added with 0.5% sodium carboxymethyl cellulose (CMC-Na), and sonicated, to prepare a solution of 5 mg per milliliter (mg/mL).

The nature of data set [2]: Acute toxicity test in mice, single dose, 14 days observation. Type of data set: in vivo. The note with it: both sexes, mouse, in vivo; ICR mice, single administration; read-out: median lethal dose (LD50). The protocol:
(§1) This experiment aims to test the toxic effects of the compounds in mice.
(§2) ICR mice, SPF grade, 6-8 weeks old, half male and half […], purchased from Sippe-Bk Lab Animal Co., Ltd., Shanghai, license number SCXK (Shanghai) 2018-0006, animal certificate number: 20180006010983.
(§3) ICR mice were administered different doses of compounds at a single time, and were continuously observed for 14 days. The animal death, poisoning reaction, body weight change, diet, appearance, behavior, etc. were recorded. At the end point, the animals were dissected, and the organs were taken for histopathological examination.

Another data set has as its system ICR mice. The description is as above. Type of data set: in vivo. Conditions: within 14 days from administration. The protocol: as §1, §2, §3
Data set [3] in a line: Pharmacokinetic experiment in rats, LC/MS/MS. Type of data set: in vivo. Conditions: SD rats; for AUC: read-out: Area under the curve (AUC, ng/mL.h). The protocol:
Taking SD rats as an example, the drug concentrations in the plasma of rats at different times after i.g. and i.v. administration of compounds of Examples 1, 5, 6, 8, 12, 13, 15, 18, 19, 22, 25, 27 and 29, respectively, were determined by the liquid chromatography-tandem mass spectrometry (LS/MS/MS) method, and the relevant pharmacokinetic parameters were calculated to evaluate the pharmacokinetic properties of example compounds of the present invention in rats.
Healthy adult SD rats, SPF grade, male, purchased from Sippe-Bk Lab Animal Co., Ltd., Shanghai, license number SCXK (Shanghai) 2018-0006, animal certificate number: 20180006006321.
A certain amount of compound was weighed, dissolved in 5% dimethyl sulfoxide (DMSO), subjected to vortex and sonication, added with 0.5% sodium carboxymethyl cellulose (CMC-Na), and sonicated, to prepare a homogeneous solution.
Before administration and 5 min, 15 min, 0.5 h, 1 h, 2 h, 4 h, 6 h, 8 h and 24 h after administration, orbital blood was collected, 0.2 milliliters (mL) of blood being collected each time, and placed in an anticoagulant tube, mixed well, and stored in a −20° C. refrigerator for later use.
The content of the compound in rat whole blood was determined by liquid chromatography-tandem mass spectrometry (LS/MS/MS).
The pharmacokinetic parameters of the compounds after administration were calculated using the non-compartmental model of WinNonLin5.3 software.

As to `Cc1c(NC(=O)c2nc3c(s2)CN(C)CC3)cccc1-c1cccc(-c2nc3cc(CN4CC[C@@H](C(=O)O)C4)cnc3o2)c1C` [Example 4, (R)-1-(((2-(2,2′-dimethyl-3′-(5-methyl-4,5,6,7-tetrahydrothiazolo[5,4-c]pyridine-2-carboxamido))-[1,1′-biphenyl]-3-yl)oxazolo[5,4-b]pyridin-6-yl)methyl)pyrrolidine-3-carboxylic acid], the “Tumor growth inhibition rate” value in data set [1] amounted to 82%. Further, the median lethal dose (LD50) at 14 days in data set [2] was greater than 1000 mg/kg. The “body weight and behavior compared with control group” value in the data set with ICR mice was “no abnormal body weight or behavior”.

In the case of `Cc1c(NC(=O)c2nc3c(s2)CN(C)CC3)cccc1-c1cncc(-c2nc3cc(CN4CC[C@@H](C(=O)O)C4)cc(Cl)c3o2)c1C` [Example 9], the “Tumor growth inhibition rate” value in data set [1] is 78%. The median lethal dose (LD50) at 14 days in data set [2] is greater than 1000 mg/kg. Moreover, the “body weight and behavior compared with control group” value in the data set on ICR mice is on record as “no abnormal body weight or behavior”.

Turning to `Cc1c(Nc2nccc3cc(CN4CC[C@@H](O)C4)cnc23)cccc1-c1cncc(-c2nc3cc(CN4CC[C@@H](C(=O)O)C4)cc(Cl)c3o2)c1C` [Example 11, (R)-1-(((7-chloro-2-(5-(3-((3-((((R)-3-hydroxypyrrolidin-1-yl)methyl)-1,7-naphthyridin-8-yl)amino)-2-methylphenyl)-4-methylpyridin-3-yl)benzo[d]oxazol-5-yl)methyl)pyrrolidine-3-carboxylic acid trifluoroacetate], the “Tumor growth inhibition rate” value in data set [1] amounted to 85%. The LD50 at 14 days in data set [2] is greater than 1000 mg/kg. Besides, the “body weight and behavior compared with control group” value in the data set with ICR mice is given as “no abnormal body weight or behavior”.

Turning to `Cc1c(NC(=O)c2nc3c(n2C)CCN(CC(C)O)C3)cccc1-c1nccc(NC(=O)c2nc3c(n2C)CCN(C)C3)c1Cl` (stereo not shown) [Example 15], in data set [3] (i.v., 2 mg/kg), the “Area under the curve (AUC, ng/mL.h)” value stood at 599.36 ng·h/mL and the “Half life (T1/2, h)” value is 1.76 h. Also, in data set [3] (p.o. 10 mg/kg vs i.v. 2 mg/kg), the “Bioavailability (F%)” value is on record as 58%. Also, in data set [3] (p.o. (i.g.), 10 mg/kg), the “Area under the curve (AUC, ng/mL.h)” value amounted to 1618.28 ng·h/mL and the “Blood concentration (Cmax, ng/mL)” value is 377.6 ng/mL. In addition, the “Tumor growth inhibition rate” value in data set [1] is 86%.

Turning to `Cc1c(NC(=O)c2nc3c(n2C)CCN(C[C@H](C)O)C3)cncc1-c1cccc(NC(=O)c2nc3c(n2C)CCN(C2COC2)C3)c1Cl` [Example 23, (S)—N-(5-(2-chloro-3-(1-methyl-5-(oxetan-3-yl)-4,5,6,7-tetrahydro-1H-imidazo[4,5-c]pyridine-2-carboxamido)phenyl)-4-methylpyridin-3-yl)-5-(2-hydroxypropyl)-1-methyl-4,5,6,7-tetrahydro-1H-imidazo[4,5-c]pyridine-2-carboxamide], the “Tumor growth inhibition rate” value in data set [1] is recorded as 81%.

Regarding `CCN1CCc2c(nc(C(=O)Nc3cncc(-c4cccc(NC(=O)c5nc6c(n5C)CCN(CC)C6)c4Cl)c3C)n2C)C1` [Example 27, N-(2-chloro-3-(5-(5-ethyl-1-methyl-4,5,6,7-tetrahydro-1H-imidazo[4,5-c]pyridine-2-carboxamido)-4-methylpyridin-3-yl)phenyl)-5-ethyl-1-methyl-4,5,6,7-tetrahydro-1H-imidazo[4,5-c]pyridine-2-carboxamide], the AUC in data set [3] (male, rat, whole blood, iv, i.v., 2 mg/kg) amounted to 637 ng·h/mL; in data set [3] (male, rat, whole blood, po, p.o. (i.g.), 10 mg/kg), 1460 ng·h/mL. In addition, the half-life in data set [3] (male, rat, whole blood, iv, i.v., 2 mg/kg, read-out: Half life (T1/2, h) (converted)) was 2.26 h. Moreover, the bioavailability in data set [3] (male, rat, whole blood, po, p.o. 10 mg/kg vs i.v. 2 mg/kg, read-out: Bioavailability (F%)) was 46%. For the same compound, in data set [3] (male, rat, whole blood, po, p.o. (i.g.), 10 mg/kg, read-out: Blood concentration (Cmax, ng/mL)), the Cmax amounted to 423 ng/mL. For the same compound, the “Tumor growth inhibition rate” value in data set [1] amounted to 80%.

Consider `Cc1c(NC(=O)c2nc3c(n2C)CCN(C[C@H](C)O)C3)cncc1-c1cccc(-c2nc3cc(CN4CC[C@@H](C(=O)O)C4)cc(Cl)c3o2)c1C` [Example 30, (R)-1-(((7-chloro-2-(3-(5-(5-((S)-2-hydroxypropyl))-1-methyl-4,5,6,7-tetrahydro-1H-imidazo[4,5-c]pyridine-2-carboxamido)-4-methylpyridin-3-yl)-2-methylphenyl)benzo[d]oxazole-5-yl)methyl)pyrrolidine-3-carboxylic acid], for which the “Tumor growth inhibition rate” value in data set [1] was 79%. In addition, the median lethal dose (LD50) at 14 days in data set [2] was greater than 1000 mg/kg. Further, the “body weight and behavior compared with control group” value with ICR mice is “no abnormal body weight or behavior”.
